According to BindingDB's records for patent US20260034094 (Kojin Therapeutics, 2026):

Target: T1, Glutamate--cysteine ligase catalytic subunit (Homo sapiens, UniProt P48506)
T1 sequence (P48506 whole entry): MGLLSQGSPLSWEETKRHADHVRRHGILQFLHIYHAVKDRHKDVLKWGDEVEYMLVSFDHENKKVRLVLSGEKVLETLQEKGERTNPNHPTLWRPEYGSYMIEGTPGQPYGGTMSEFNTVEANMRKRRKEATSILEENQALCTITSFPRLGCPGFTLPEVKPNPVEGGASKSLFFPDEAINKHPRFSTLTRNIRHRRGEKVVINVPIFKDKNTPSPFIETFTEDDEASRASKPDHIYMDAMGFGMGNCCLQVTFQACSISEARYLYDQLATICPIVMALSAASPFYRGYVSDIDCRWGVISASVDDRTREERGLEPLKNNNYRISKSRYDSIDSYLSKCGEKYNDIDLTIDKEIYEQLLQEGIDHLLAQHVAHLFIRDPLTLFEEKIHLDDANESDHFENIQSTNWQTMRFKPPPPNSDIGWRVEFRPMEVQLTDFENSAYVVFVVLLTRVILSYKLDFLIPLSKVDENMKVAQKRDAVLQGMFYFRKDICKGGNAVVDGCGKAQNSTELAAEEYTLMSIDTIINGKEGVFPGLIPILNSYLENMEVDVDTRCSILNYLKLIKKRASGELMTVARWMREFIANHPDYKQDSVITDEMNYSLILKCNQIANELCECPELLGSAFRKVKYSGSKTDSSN
Assay: GCL Enzyme Profiling Assay
Description: Compound in pure DMSO was stamped in assay plates (Greiner black 384-well) or appropriate containers using a D300e digital dispenser (TECAN) and the final DMSO concentration was normalized to 1%. A 5 mL, or in the present case, 5 μL mixture of human recombinant GCL (final concentration: 5 nM) and ATP (final concentration: 0.6 mM) was added and the solution was incubated at room temperature (22° C.) for 1 h. […] The reaction was stopped after 1 h or in the present case, 2 h by addition of 5 mL, or in the present case, 5 μL ADP GLO Reagent (Promega). The resulting solution was incubated for 2 h at room temperature. This was then followed by addition of 5 mL, or in the present case, 5 μL ADP GLO Detection. After incubation at room temperature for 30 min, the plates were read on a plate reader (PheraStar) using a luminescence protocol to quantify the GCL enzyme activity from each reaction solution.

Compound	IC50 [µM]
N=S(=O)(CCc1cccc(Cl)c1F)CC[C@H](N)C(=O)O (some centres undefined) [US20260034094, Compound 28]	< 20
CC(C)(C)CCS(=N)(=O)CC[C@H](N)C(=O)Nc1nccs1 (some centres undefined) [US20260034094, Compound 121]	> 2000
N=S(=O)(CCC(c1ccc(-c2ccccc2F)cc1)C(F)(F)F)CC[C@H](N)C(=O)O (some centres undefined) [US20260034094, Compound 217]	< 20
N=S(=O)(CCC(c1ccc(C2CC2)cc1)C(F)(F)F)CC[C@H](N)C(=O)O (some centres undefined) [US20260034094, Compound 225]	< 20
N=S(=O)(CCC(c1ccc(-c2ccc(Br)cc2)cc1)C(F)(F)F)CC[C@H](N)C(=O)O (some centres undefined) [US20260034094, Compound 226]	< 20
N=S(=O)(CCC(c1ccc(-c2cn[nH]c2)cc1)C(F)(F)F)CC[C@H](N)C(=O)O (some centres undefined) [US20260034094, Compound 227]	< 20
N=S(=O)(CCC(c1ccc(-c2cc[nH]n2)cc1)C(F)(F)F)CC[C@H](N)C(=O)O (some centres undefined) [US20260034094, Compound 228]	< 20
N=S(=O)(CCC(c1ccc(-c2cccc(C(N)=O)c2)cc1)C(F)(F)F)CC[C@H](N)C(=O)O (some centres undefined) [US20260034094, Compound 229]	< 20
CNC(=O)c1cccc(-c2ccc(C(CCS(=N)(=O)CC[C@H](N)C(=O)O)C(F)(F)F)cc2)c1 (some centres undefined) [US20260034094, Compound 230]	< 20
N=S(=O)(CCC(c1ccc(-c2ccc(C(F)F)cc2)cc1)C(F)(F)F)CC[C@H](N)C(=O)O (some centres undefined) [US20260034094, Compound 231]	< 20
N=S(=O)(CCC(c1ccc(-c2ccccc2O)cc1)C(F)(F)F)CC[C@H](N)C(=O)O (some centres undefined) [US20260034094, Compound 235]	< 20
CC(C)(O)c1cccc(-c2ccc(C(CCS(=N)(=O)CC[C@H](N)C(=O)O)C(F)(F)F)cc2)c1 (some centres undefined) [US20260034094, Compound 241]	< 20
N=S(=O)(CCC(c1ccc(-c2cccnc2)cc1)C(F)(F)F)CC[C@H](N)C(=O)O (some centres undefined) [US20260034094, Compound 243]	< 20
N=S(=O)(CCC(c1ccc(-c2ccc(C(N)=O)nc2)cc1)C(F)(F)F)CC[C@H](N)C(=O)O (some centres undefined) [US20260034094, Compound 245]	< 20
Cc1ccc(-c2ccc(C(CCS(=N)(=O)CC[C@H](N)C(=O)O)C(F)(F)F)cc2)cn1 (some centres undefined) [US20260034094, Compound 246]	< 20
Cc1nc(Cl)ccc1-c1ccc(C(CCS(=N)(=O)CC[C@H](N)C(=O)O)C(F)(F)F)cc1 (some centres undefined) [US20260034094, Compound 248]	< 20
CN1CCN(c2ccc(-c3ccc(C(CCS(=N)(=O)CC[C@H](N)C(=O)O)C(F)(F)F)cc3)cn2)CC1 (some centres undefined) [US20260034094, Compound 249]	< 20
N=S(=O)(CCC(c1ccc(-c2cnc(N)nc2)cc1)C(F)(F)F)CC[C@H](N)C(=O)O (some centres undefined) [US20260034094, Compound 251]	< 20
N=S(=O)(CCC(c1ccc(-c2cnc(C3CC3)nc2)cc1)C(F)(F)F)CC[C@H](N)C(=O)O (some centres undefined) [US20260034094, Compound 252]	< 20
N=S(=O)(CCC(c1ccc(-c2cnc3[nH]ccc3c2)cc1)C(F)(F)F)CC[C@H](N)C(=O)O (some centres undefined) [US20260034094, Compound 253]	< 20
N=S(=O)(CCC(c1ccc(-c2cnc3[nH]ncc3c2)cc1)C(F)(F)F)CC[C@H](N)C(=O)O (some centres undefined) [US20260034094, Compound 254]	< 20
N=S(=O)(CCC(c1ccc(-c2ccc3cn[nH]c3c2)cc1)C(F)(F)F)CC[C@H](N)C(=O)O (some centres undefined) [US20260034094, Compound 255]	< 20
N=S(=O)(CCC(c1ccc(-c2ccc(Cl)s2)cc1)C(F)(F)F)CC[C@H](N)C(=O)O (some centres undefined) [US20260034094, Compound 256]	< 20
N=S(=O)(CCC(c1ccc(-c2ccsc2)cc1)C(F)(F)F)CC[C@H](N)C(=O)O (some centres undefined) [US20260034094, Compound 257]	< 20
N=S(=O)(CCC(c1ccc(-c2ccoc2)cc1)C(F)(F)F)CC[C@H](N)C(=O)O (some centres undefined) [US20260034094, Compound 258]	< 20
N=S(=O)(CCC(c1ccc(C2=CCNCC2)cc1)C(F)(F)F)CC[C@H](N)C(=O)O (some centres undefined) [US20260034094, Compound 259]	< 20
C=C(c1ccc(C(CCS(=N)(=O)CC[C@H](N)C(=O)O)C(F)(F)F)cc1)C(F)(F)F (some centres undefined) [US20260034094, Compound 260]	< 20

Compound	IC50 [µM]
C=Cc1ccc(C(CCS(=N)(=O)CC[C@H](N)C(=O)O)C(F)(F)F)cc1 (some centres undefined) [US20260034094, Compound 261]	< 20
C=C(C)c1ccc(C(CCS(=N)(=O)CC[C@H](N)C(=O)O)C(F)(F)F)cc1 (some centres undefined) [US20260034094, Compound 262]	< 20
CC(C)(O)c1ccc(C(CCS(=N)(=O)CC[C@H](N)C(=O)O)C(F)(F)F)cc1 (some centres undefined) [US20260034094, Compound 263]	< 20
COc1ccccc1-c1ccc(C(CCS(=N)(=O)CC[C@H](N)C(=O)O)C(F)(F)F)cc1 (some centres undefined) [US20260034094, Compound 264]	< 20
Cc1ccccc1-c1ccc(C(CCS(=N)(=O)CC[C@H](N)C(=O)O)C(F)(F)F)cc1 (some centres undefined) [US20260034094, Compound 265]	< 20
CC(C)c1ccccc1-c1ccc(C(CCS(=N)(=O)CC[C@H](N)C(=O)O)C(F)(F)F)cc1 (some centres undefined) [US20260034094, Compound 266]	< 20
N=S(=O)(CCC(c1ccc(-c2ccccc2C(F)(F)F)cc1)C(F)(F)F)CC[C@H](N)C(=O)O (some centres undefined) [US20260034094, Compound 267]	< 20
COc1ccc(-c2ccc(C(CCS(=N)(=O)CC[C@H](N)C(=O)O)C(F)(F)F)cc2)c(Cl)c1 (some centres undefined) [US20260034094, Compound 268]	< 20
N=S(=O)(CCC(c1ccc(-c2ccc(Cl)cc2Cl)cc1)C(F)(F)F)CC[C@H](N)C(=O)O (some centres undefined) [US20260034094, Compound 269]	< 20
N=S(=O)(CCC(c1ccc(-c2ccc(O)cc2Cl)cc1)C(F)(F)F)CC[C@H](N)C(=O)O (some centres undefined) [US20260034094, Compound 270]	< 20
N=S(=O)(CCC(c1ccc(-c2ccc(F)cc2Cl)cc1)C(F)(F)F)CC[C@H](N)C(=O)O (some centres undefined) [US20260034094, Compound 271]	< 20
C#Cc1ccc(C(CCS(=N)(=O)CC[C@H](N)C(=O)O)C(F)(F)F)cc1 (some centres undefined) [US20260034094, Compound 272]	< 20
N=S(=O)(CCC(c1cccc(C#Cc2ccccc2)c1)C(F)(F)F)CC[C@H](N)C(=O)O (some centres undefined) [US20260034094, Compound 273]	< 20
Cc1cc(Cl)ccc1-c1ccc(C(CCS(=N)(=O)CC[C@H](N)C(=O)O)C(F)(F)F)cc1 (some centres undefined) [US20260034094, Compound 275]	< 20
N=S(=O)(CCC(c1ccc(-c2ccc(Cl)cc2)cc1)C(F)(F)F)CC[C@H](N)C(=O)O (some centres undefined) [US20260034094, Compound 277]	< 20
Cc1cc(F)ccc1-c1ccc(C(CCS(=N)(=O)CC[C@H](N)C(=O)O)C(F)(F)F)cc1 (some centres undefined) [US20260034094, Compound 278]	< 20
Cc1ccc(-c2ccc(C(CCS(=N)(=O)CC[C@H](N)C(=O)O)C(F)(F)F)cc2)c(Cl)c1 (some centres undefined) [US20260034094, Compound 279]	< 20
Cc1ccc(-c2ccc(C(CCS(=N)(=O)CC[C@H](N)C(=O)O)C(F)(F)F)cc2)c(C)c1 (some centres undefined) [US20260034094, Compound 280]	< 20
N=S(=O)(CCC(c1ccc(-c2ccc(F)cc2O)cc1)C(F)(F)F)CC[C@H](N)C(=O)O (some centres undefined) [US20260034094, Compound 281]	< 20
N=S(=O)(CCC(c1ccc(-c2ccc(Cl)cc2O)cc1)C(F)(F)F)CC[C@H](N)C(=O)O (some centres undefined) [US20260034094, Compound 282]	< 20
Cc1cc(Cl)ccc1-c1cccc(C(CCS(=N)(=O)CC[C@H](N)C(=O)O)C(F)(F)F)c1 (some centres undefined) [US20260034094, Compound 283]	< 20
Cc1ccc(-c2cccc(C(CCS(=N)(=O)CC[C@H](N)C(=O)O)C(F)(F)F)c2)c(F)c1 (some centres undefined) [US20260034094, Compound 284]	< 20
Cc1ccc(-c2cccc(C(CCS(=N)(=O)CC[C@H](N)C(=O)O)C(F)(F)F)c2)cc1 (some centres undefined) [US20260034094, Compound 285]	< 20
Cc1cccc(-c2cccc(C(CCS(=N)(=O)CC[C@H](N)C(=O)O)C(F)(F)F)c2)c1 (some centres undefined) [US20260034094, Compound 286]	< 20
N=S(=O)(CCC(c1cccc(-c2cccc(F)c2)c1)C(F)(F)F)CC[C@H](N)C(=O)O (some centres undefined) [US20260034094, Compound 287]	< 20
N=S(=O)(CCC(c1cccc(-c2ccc(Cl)cc2Cl)c1)C(F)(F)F)CC[C@H](N)C(=O)O (some centres undefined) [US20260034094, Compound 288]	< 20
Cc1ccc(-c2cccc(C(CCS(=N)(=O)CC[C@H](N)C(=O)O)C(F)(F)F)c2)cc1F (some centres undefined) [US20260034094, Compound 290]	< 20
